This is an account of results in patent US9006450B2 (Boehringer Ingelheim International GmbH, priority 2010, dated 2015).

By IC50 is commonly meant the concentration at which inhibition is half-maximal.

T1 sequence (O00763 129-2458 limits assumed): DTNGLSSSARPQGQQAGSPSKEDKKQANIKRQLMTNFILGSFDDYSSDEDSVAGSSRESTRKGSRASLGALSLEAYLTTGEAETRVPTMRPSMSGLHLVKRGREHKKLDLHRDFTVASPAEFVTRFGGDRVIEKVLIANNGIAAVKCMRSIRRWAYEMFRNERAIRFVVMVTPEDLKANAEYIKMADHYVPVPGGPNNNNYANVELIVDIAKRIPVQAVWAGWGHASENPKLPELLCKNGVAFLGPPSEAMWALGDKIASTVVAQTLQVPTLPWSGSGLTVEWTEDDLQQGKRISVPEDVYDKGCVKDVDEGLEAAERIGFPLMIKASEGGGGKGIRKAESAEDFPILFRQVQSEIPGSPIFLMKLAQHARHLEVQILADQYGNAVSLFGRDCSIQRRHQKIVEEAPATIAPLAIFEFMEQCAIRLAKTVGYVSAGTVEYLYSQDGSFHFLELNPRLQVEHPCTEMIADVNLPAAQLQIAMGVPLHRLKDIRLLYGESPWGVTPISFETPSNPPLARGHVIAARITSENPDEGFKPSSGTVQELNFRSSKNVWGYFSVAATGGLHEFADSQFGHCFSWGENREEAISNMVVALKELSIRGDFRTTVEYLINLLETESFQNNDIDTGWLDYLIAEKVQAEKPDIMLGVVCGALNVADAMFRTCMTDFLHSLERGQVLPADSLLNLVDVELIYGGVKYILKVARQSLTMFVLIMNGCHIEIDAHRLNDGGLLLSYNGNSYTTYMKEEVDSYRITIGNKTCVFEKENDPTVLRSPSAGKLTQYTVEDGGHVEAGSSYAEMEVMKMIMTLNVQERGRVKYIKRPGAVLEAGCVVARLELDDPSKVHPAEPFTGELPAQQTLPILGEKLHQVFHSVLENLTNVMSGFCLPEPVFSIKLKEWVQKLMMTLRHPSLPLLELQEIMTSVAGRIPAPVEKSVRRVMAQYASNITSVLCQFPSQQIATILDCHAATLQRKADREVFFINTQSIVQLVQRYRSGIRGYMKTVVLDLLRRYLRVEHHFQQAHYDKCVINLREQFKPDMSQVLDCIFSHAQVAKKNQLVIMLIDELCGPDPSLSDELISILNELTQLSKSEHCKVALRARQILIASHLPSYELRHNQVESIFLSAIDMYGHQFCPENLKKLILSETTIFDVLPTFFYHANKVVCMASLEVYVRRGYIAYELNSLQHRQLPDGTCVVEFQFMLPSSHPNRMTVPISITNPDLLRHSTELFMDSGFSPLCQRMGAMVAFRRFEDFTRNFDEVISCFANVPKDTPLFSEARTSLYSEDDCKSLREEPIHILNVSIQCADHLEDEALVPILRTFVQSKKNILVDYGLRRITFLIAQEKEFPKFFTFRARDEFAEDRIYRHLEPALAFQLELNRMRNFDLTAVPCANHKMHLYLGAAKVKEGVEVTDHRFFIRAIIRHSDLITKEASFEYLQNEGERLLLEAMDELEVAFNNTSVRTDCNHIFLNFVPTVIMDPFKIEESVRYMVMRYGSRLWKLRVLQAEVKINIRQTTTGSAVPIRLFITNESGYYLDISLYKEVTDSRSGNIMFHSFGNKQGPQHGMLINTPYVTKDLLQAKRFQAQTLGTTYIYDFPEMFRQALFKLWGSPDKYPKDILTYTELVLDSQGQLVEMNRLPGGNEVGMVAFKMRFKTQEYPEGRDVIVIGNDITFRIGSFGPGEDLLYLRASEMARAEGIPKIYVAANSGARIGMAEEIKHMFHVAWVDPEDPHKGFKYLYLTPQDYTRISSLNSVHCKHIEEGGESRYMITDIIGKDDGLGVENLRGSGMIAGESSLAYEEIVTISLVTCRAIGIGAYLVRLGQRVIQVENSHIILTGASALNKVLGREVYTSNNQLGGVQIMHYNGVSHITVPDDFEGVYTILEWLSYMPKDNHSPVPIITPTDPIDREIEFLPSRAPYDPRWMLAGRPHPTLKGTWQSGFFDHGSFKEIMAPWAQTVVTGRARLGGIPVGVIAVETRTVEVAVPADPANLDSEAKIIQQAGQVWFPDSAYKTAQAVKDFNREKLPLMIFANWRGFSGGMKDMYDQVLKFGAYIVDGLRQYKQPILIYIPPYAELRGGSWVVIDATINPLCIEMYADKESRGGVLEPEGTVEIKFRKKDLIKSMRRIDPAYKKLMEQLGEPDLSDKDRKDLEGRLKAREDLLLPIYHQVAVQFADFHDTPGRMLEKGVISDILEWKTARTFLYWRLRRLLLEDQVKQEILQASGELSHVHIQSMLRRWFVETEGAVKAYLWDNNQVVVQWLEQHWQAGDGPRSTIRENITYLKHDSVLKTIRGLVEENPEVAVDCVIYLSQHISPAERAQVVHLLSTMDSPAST

The first assay has as its target T1, human ACC2 (Homo sapiens, UniProt O00763).
T1 construct: made in house; host or cells: insect cells (baculoviral expression system)
Briefly: ACC2 assay, spectrophotometric 384 well assay (NADH-linked, coupled lactate dehydrogenase/pyruvate kinase). The format is biochemical. The conditions noted are these: ACC2 assay, hACC2 construct lacking 128 N-terminal amino acids, 25° C., 340 nm; read-out: IC50. The essentials:
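ADP output tracked via pyruvate kinase/lactate dehydrogenase NADH oxidation, slope at 340 nm over 15 min, 25° C, with 500 μM ATP and 200 μM each acetyl-CoA and NADH. Enzyme: insect-cell-expressed human ACC2, N-terminal 128 residues deleted; pH 7.5 Tris with citrate, KHCO3. IC50 from four-parameter regression versus vehicle and no-acetyl-CoA controls.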
Take `CC(=O)N[C@@H](C)c1ccc(C2CCN(c3ccc(OCC4CC4)cc3C#N)CC2)cc1` [Example 13.2]: the IC50 was determined as 130 nM. As for `CCOC(=O)c1cc2cc(N3CCC(c4ccc([C@H](C)NC(C)=O)cc4)CC3)ccc2o1` [Example 15.17], the IC50 was 300 nM.

For `CC(=O)N[C@@H](C)c1ccc(C2CCN(c3ncc(-c4ccc(F)cc4F)cn3)CC2)cc1` [Example 10.53], the IC50 stood at 80 nM. Still for that read-out and setting: then `C[C@H](NC(=O)C1CC1)c1ccc(C2CCN(c3ccc(OCC4CC4)cc3)CC2)cc1` [Example 1.16], with 90 nM. Same read-out and setting: in the case of `CC(=O)N[C@@H](C)c1ccc(C2CCN(c3ccnc(NC(C)C)n3)CC2)cc1` [Example 11.43] it was 3300 nM; in that of `CC(=O)N[C@@H](C)c1ccc(C2CCN(c3cc(N(C)Cc4ccccc4)ncn3)CC2)cc1` [Example 11.82], 870 nM; in that of `CCOc1cc(N2CCC(c3ccc([C@H](C)NC(=O)OC)cc3)CC2)ccn1` [Example 1.11], 300 nM. On the same count and under the same terms, then `CC(=O)N[C@@H](C)c1ccc(C2CCN(c3ccc(Cl)cc3C#N)CC2)cc1` [Example 1.171], with 16300 nM; and `CCCC(C)Oc1ccc(N2CCC(c3ccc([C@H](C)NC(C)=O)cc3)CC2)cc1OC` (some centres unmarked) [Example 8.59], with 840 nM.

With `CC(=O)N[C@@H](C)c1ccc(C2CCN(c3ccc(OCC4CCO4)c(Cl)c3)CC2)cc1` (some centres unmarked) [Example 8.50], the IC50 worked out at 1100 nM. Same read-out and setting: in the case of `CCOc1ccc(N2CCC(c3ccc([C@H](C)NC(=O)C4CC4C)cc3)CC2)cc1` (some centres unmarked) [Example 6.18] it was 1100 nM. Regarding `C[C@H](NC(=O)C1CC1)c1ccc(C2CCN(c3ncc(C#N)c(N(C)CC4CC4)n3)CC2)cc1` [Example 11.127], the IC50 was found to be 3500 nM. For the molecule `CC(=O)N[C@@H](C)c1ccc(C2CCN(c3ccc(OCC4(CC#N)CC4)cc3)CC2)cc1` [Example 27.3], the IC50 was determined as 860 nM.

Turning to `CCOc1ccc(N2CCC(c3ccc([C@H](C)NC(=O)N(CC)CC)cc3)CC2)cc1` [Example 14.67], the IC50 is 1900 nM.

With `CC(=O)N[C@@H](C)c1ccc(C2CCN(c3cc(NCCc4ccccc4)ncn3)CC2)cc1` [Example 11.72], the IC50 amounted to 10500 nM. On the same count and under the same terms, in the case of `COc1ncc(-c2cnc(N3CCC(c4ccc([C@H](C)NC(C)=O)cc4)CC3)nc2)cn1` [Example 10.22] it was 1100 nM; in that of `CCCCOc1ccc(N2CCC(c3ccc([C@H](C)NC(C)=O)cc3)CC2)cc1Cl` [Example 8.44], 290 nM. Consider `COC(=O)N[C@@H](C)c1ccc(C2CCN(c3ccc(OC4CCC4)cc3)CC2)cc1` [Example 1.12], for which the IC50 came to 80 nM. As for `CCCOc1ccc(N2CCC(c3ccc(CC(C)NC(C)=O)cc3)CC2)cc1` (centres unmarked) [Example 2.3], the IC50 was found to be 990 nM. Same read-out and setting: then `CC(=O)N[C@@H](C)c1ccc(C2CCN(c3ncc(-c4ccc5c(c4)OCO5)cc3F)CC2)cc1` [Example 10.313], with 120 nM; and `CC(=O)N[C@@H](C)c1ccc(C2CCN(c3ncc(-c4ccc5cc[nH]c5c4)cn3)CC2)cc1` [Example 10.114], with 410 nM; and `CC(=O)N[C@@H](C)c1ccc(C2CCN(c3ccc4c(c3)OCO4)CC2)cc1` [Example 1.67], with 360 nM. The same measure, in the same setting: in the case of `CC(=O)N[C@@H](C)c1ccc(C2CCN(c3ccnc(OC4CC=CC4)c3)CC2)cc1` [Example 19.25] it was 70 nM; in that of `CCCC(C)Oc1cccc(N2CCC(c3ccc([C@H](C)NC(C)=O)cc3)CC2)c1` (some centres unmarked) [Example 9.2], 300 nM. On the same count and under the same terms, in the case of `C[C@H](NC(=O)N(C)C)c1ccc(C2CCN(c3ccc4c(c3)OCC(C)(C)CO4)CC2)cc1` [Example 1.58] it was 120 nM; in that of `CC(=O)N[C@@H](C)c1ccc(C2CCN(c3ccc(OC(C)c4ccccc4)cc3)CC2)cc1` (some centres unmarked) [Example 9.35], 210 nM. `COc1cc(N2CCC(c3ccc([C@H](C)NC(C)=O)cc3)CC2)ccc1OCC1CCC1` [Example 9.43]: the IC50 amounted to 430 nM.

`CCNc1cc(N2CCC(c3ccc([C@H](C)NC(C)=O)cc3)CC2)ncn1` [Example 11.51]: the IC50 worked out at 7800 nM. On the same count and under the same terms, in the case of `CC(C)Oc1ccc(N2CCC(c3ccc([C@H](C)NC(=O)C4CC4)cc3)CC2)cc1` [Example 1.119] it was 260 nM; in that of `CC(=O)N[C@@H](C)c1ccc(C2CCN(c3ccc4oc(C5CC5)nc4c3)CC2)cc1` [Example 15.14], 880 nM. On the same count and under the same terms, in the case of `CC(=O)N[C@@H](C)c1ccc(C2CCN(c3ncc(C4=CCCCC4)cn3)CC2)cc1` [Example 10.71] it was 150 nM; in that of `CCOc1ccc(N2CCC(c3ccc([C@H](C)NC(=O)CC)cc3)CC2)c(F)c1` [Example 1.168], 500 nM. As for `CCC(=O)N[C@@H](C)c1ccc(C2CCN(c3ccnc(Oc4cncnc4)c3)CC2)cc1` [Example 1.169], the IC50 is 1700 nM. Still for that read-out and setting: in the case of `CC(=O)N[C@@H](C)c1ccc(C2CCN(c3ccnc(OC4CCCC4)n3)CC2)cc1` [Example 11.8] it was 490 nM. On the same count and under the same terms, in the case of `CC(=O)N[C@@H](C)c1ccc(C2CCN(c3ccnc(Oc4ccccc4)c3)CC2)cc1` [Example 3.12] it was 60 nM; in that of `CC(=O)N[C@@H](C)c1ccc(C2CCN(c3cc(-c4ccc(C#N)s4)ncn3)CC2)cc1` [Example 22.8], 2900 nM. The same measure, in the same setting: then `CC(=O)N[C@@H](C)c1ccc(C2CCN(c3cccc(OCc4ccccc4)c3)CC2)cc1` [Example 9.17], with 550 nM. Turning to `CCOc1ccc(N2CCC(c3ccc([C@H](C)NC(=O)NC4CC4)cc3)CC2)cc1` [Example 14.3], the IC50 turned out to be 1400 nM. Still for that read-out and setting: in the case of `CC(=O)N[C@@H](C)c1ccc(C2CCN(c3ncc(-c4ccc5nccnc5c4)cn3)CC2)cc1` [Example 10.73] it was 180 nM. The same measure, in the same setting: then `COc1cc(-c2cnc(N3CCC(c4ccc([C@H](C)NC(C)=O)cc4)CC3)nc2)ccc1C` [Example 10.65], with 330 nM; and `CC(=O)N[C@@H](C)c1ccc(C2CCN(c3ccc(OC4CCC4)c(Cl)c3)CC2)cc1` [Example 8.14], with 130 nM.

On to `CC(=O)N[C@@H](C)c1ccc(C2CCN(c3ncc(-c4ccc(C#N)s4)cc3F)CC2)cc1` [Example 10.309], for which the IC50 came to 80 nM. As for `CCOc1ccc(N2CCC(c3ccc([C@H](C)NC(=O)C4CC(OC)C4)cc3)CC2)cc1` (some centres unmarked) [Example 6.37], the IC50 was determined as 760 nM. On the same count and under the same terms, then `CCC(NC(C)=O)c1ccc(C2CCN(c3ccc(OCC(C)C)cc3)CC2)cc1` (centres unmarked) [Example 15.21], with 1200 nM; and `CC(=O)N[C@@H](C)c1ccc(C2CCN(c3ccnc(N4CCCC4)n3)CC2)cc1` [Example 11.114], with 180 nM; and `CC(=O)N[C@@H](C)c1ccc(C2CCN(c3ccc(OCC4CC4)c(C)c3)CC2)cc1` [Example 9.38], with 410 nM.

Take `COc1ccc2[nH]c(-c3cnc(N4CCC(c5ccc([C@H](C)NC(C)=O)cc5)CC4)nc3)cc2c1` [Example 10.115]: the IC50 was 410 nM.

As for `CC(=O)N[C@@H](C)c1ccc(C2CCN(c3ccnc(N[C@H](C)C(C)C)n3)CC2)cc1` [Example 11.75], the IC50 was found to be 3800 nM. Same read-out and setting: then `CC(=O)N[C@@H](C)c1ccc(C2CCN(c3ncc(C(=O)N(C)Cc4ccncc4)cn3)CC2)cc1` [Example 18.1, (S)-2-{4-[4-(1-Acetylamino-ethyl)-phenyl]-piperidin-1-yl}-pyrimidine-5-carboxylic acid methyl-pyridin-4-ylmethyl-amide], with 9800 nM; and `CC(=O)N[C@@H](C)c1ccc(C2CCN(c3ncnc4ccccc34)CC2)cc1` [Example 4.7], with 950 nM. Still for that read-out and setting: in the case of `COc1cccc(Oc2nccc(N3CCC(c4ccc([C@H](C)NC(C)=O)cc4)CC3)n2)c1` [Example 11.32] it was 1100 nM; in that of `CC(=O)N[C@@H](C)c1ccc(C2CCN(c3nc(C(C)C)no3)CC2)cc1` [Example 25.1, (S)—N-(1-{4-[1-(3-Isopropyl-[1,2,4]oxadiazol-5-yl)-piperidin-4-yl]-phenyl}-ethyl)-acetamide], 2700 nM.

For `CC(=O)N[C@@H](C)c1ccc(C2CCN(c3nccc(C(F)(F)F)c3F)CC2)cc1` [Example 5.11], the IC50 came to 150 nM. Still for that read-out and setting: in the case of `CC(=O)N[C@@H](C)c1ccc(C2CCN(c3ccnc(N(C)CC4CC4)n3)CC2)cc1` [Example 11.90] it was 230 nM; in that of `C[C@H](NC(=O)N(C)C)c1ccc(C2CCN(c3ccc(OCC4CC4)cc3)CC2)cc1` [Example 1.24], 210 nM.

With `CCOc1cccc(-c2cnc(N3CCC(c4ccc([C@H](C)NC(C)=O)cc4)CC3)c(F)c2)c1` [Example 10.307], the IC50 is 310 nM.

For the molecule `CCOc1ccc(N2CCC(c3ccc([C@H](C)NC(=O)CC(C)=O)cc3)CC2)cc1` [Example 30.1], the IC50 stood at 2700 nM. Still for that read-out and setting: then `CCC(=O)N[C@@H](C)c1ccc(C2CCN(c3ccc4c(c3)OCCO4)CC2)cc1` [Example 1.146], with 1100 nM; and `C[C@H](NC(=O)N(C)C)c1ccc(C2CCN(c3cnc(OCC4CC4)nc3)CC2)cc1` [Example 16.6], with 450 nM; and `CC(=O)N[C@@H](C)c1ccc(C2CCN(c3ccc(O)cc3F)CC2)cc1` [Example 1.65], with 20000 nM. Same read-out and setting: in the case of `CCCOc1cccc(N2CCC(c3ccc([C@H](C)NC(C)=O)cc3)CC2)c1` [Example 1.89] it was 390 nM; in that of `CCOc1ccc(N2CCC(c3ccc([C@H](C)NC(C)=O)cc3)CC2)c(OCC)n1` [Example 1.180], 530 nM. On the same count and under the same terms, in the case of `CC(=O)N[C@@H](C)c1ccc(C2CCN(c3ncc(-c4cc5ccccc5[nH]4)cn3)CC2)cc1` [Example 10.119] it was 310 nM. For `CC(=O)N[C@@H](C)c1ccc(C2CCN(c3ncc(C(=O)NCCC#N)cn3)CC2)cc1` [Example 18.80], the IC50 came to 27200 nM.

The same assay, now with this note: IC50, ACC2 assay, hACC2 construct lacking 128 N-terminal amino acids, 25° C., 340 nm.
Consider `CCOc1ccc(N2CCC(c3ccc([C@H](C)NC(=O)CF)cc3)CC2)cc1` [Example 6.14], for which it took 190 nM to reach half-maximal inhibition (IC50).
